Entries after “also recorded” stand apart in the source; their conditions may differ.
Experiments:
[1] = tested on: panel of cell lines derived from various origins and tissues (cancer cell lines, non-cancerous cell lines, primary cells); assay: Growth inhibition experiments (MTT, 5 d), panel of cell lines; assay type: cell-based; conditions: for growth inhibitory activity in cell lines (in words, compared to chondramides A~C / other derivatives): GI50-based comparison, panel of cell lines
Description: First, the compounds were tested on a small panel of cell lines derived from various origins and tissues. GI50 values were compared to those determined using chondramides A˜C (see Table 1).
(§1) Cell lines were obtained from the American Type Culture Collection (ATCC) and the German Collection of Microorganisms and Cell Cultures (Deutsche Sammlung für Mikroorganismen and Zellkulturen, DSMZ), and HUVEC (single donor) were purchased from PromoCell. Cells were cultured under the conditions recommended by the respective depositor in a standard humidified incubator at 37° C. with 5% CO2.
(§2) Cells were seeded at 6×10^3 cells per well of 96-well plates (Corning CellBind®) in 180 μl complete medium and directly treated with chondramides dissolved in methanol in a serial dilution. Each compound was tested in duplicate for 5 d, as well as the internal methanol control. After 5 d incubation, 20 μl of 5 mg/ml MTT (Mosmann, T. (1983). Rapid Colorimetric Assay for Cellular Growth and Survival: Application to Proliferation and Cytotoxicity Assays. J. Immunol. Meth. 65, 55-63) in PBS was added per well and it was further incubated for 2 h at 37° C. The medium was then discarded and cells were washed with 100 μl PBS before adding 100 μl 2-propanol/10 N HCl (250:1) in order to dissolve formazan granules. The absorbance at 570 nm was measured using a microplate reader (EL808, Bio-Tek Instruments Inc.), and cell viability was expressed as percentage relative to the respective methanol control. GI50 values were obtained by sigmoidal curve fitting. Testing of fractions was performed likewise using 1.2×10^4 cells per well. Samples were dissolved in cell culture medium and cells were treated for 2 d before adding MTT. Viability was expressed relative to the untreated control.
These compounds were profiled regarding their growth inhibitory potential in a panel of cancer cell lines. Natural chondramide A was used as reference:
Biological evaluation of group A derivatives. GI50 values [nM] were determined in a small panel of cancer cell lines.

[2] = tested on: human U-2 OS osteosarcoma cell line; assay: Growth inhibition experiments (MTT, 5 d), U-2 OS; assay type: cell-based; conditions: Table 1; U-2 OS; read-out: GI50 values U-2 OS
Description: as §2

[3] = tested on: HCT-116 colon carcinoma cell line; assay: Growth inhibition experiments (MTT, 5 d), HCT-116; assay type: cell-based, human; conditions: Table 1; HCT-116; read-out: GI50 values HCT-116
Description: as §2

[4] = tested on: HUVEC, human umbilical vein endothelial cells (primary cells); assay: Growth inhibition experiments (MTT, 5 d), HUVEC; assay type: cell-based; conditions: Table 1
Source text: (§3) With primary cells (HUVEC, human umbilical vein endothelial cells) and the fibroblast cell line MRC5 this is not the case. Whereas chondramides A˜C are comparably active on both, cancer and non-cancerous cells, brominated chondramide C3 analogs are on average by factor 2-4 less toxic for non-cancerous cells. Accordingly they show a higher selectivity.
as §1, §2

[5] = tested on: fibroblast cell line MRC5; assay: Growth inhibition experiments (MTT, 5 d), MRC5; assay type: cell-based, human; conditions: Table 1
Description: as §3, §2

[6] = tested on: multidrug resistant (MDR) KB-V.1 cell line; assay: Growth inhibition experiments (MTT, 5 d), KB-V.1; assay type: cell-based; conditions: Table 1
Description: Cancer Inst. 90, 1559-1563). […] The same applies for most novel derivatives, solely a hydroxyl group at C2′ of the polyketide segment instead of methoxy or simply hydrogen leads to an approximately 10-fold reduced potency. GI50 values of glycosylated derivatives were not determinable precisely in the assay's concentration range.
as §2

[7] = molecular target: T1, pyrene-labeled rabbit muscle actin (Oryctolagus cuniculus, UniProt P68135); assay: Actin polymerization assay (pyrene actin fluorescence); assay type: biochemical; conditions: 20 μM derivative, 5 μM pyrene actin, non-polymerizing buffer, followed over 85 min
T1 construct: pyrene-labeled rabbit muscle actin; purchased Cytoskeleton, Inc; host or cells: rabbit muscle (tissue-derived; inferred from the name)
Description: A final concentration of 20 μM for each derivative was chosen and polymerization was followed over 85 min.
Fluorescence-based actin polymerization assays were performed using pyrene muscle actin (Cytoskeleton, Inc.) according to the supplier's protocol. Chondramides were dissolved in non-polymerizing buffer (5 mM Tris-HCl pH 8.0, 0.2 mM CaCl2, 0.2 mM ATP, 1 mM DTT) and mixed with pyrene actin diluted in the same buffer to give a final concentration of 20 μM chondramide and 5 μM actin. Samples were prepared in black, low-volume 384-well plates (Corning, NBS™ surface). The fluorescence at 405 nm (excitation at 360 nm) was scanned every 30 s for 85 min at 37° C. on a microplate reader (Spectramax M5^e, Molecular Devices). Experiments were performed in duplicates and the average relative fluorescence of polymerizing pyrene actin is given. Slopes were calculated in the linear range of kinetic measurements.

[8] = tested on: KB-3.1: human cervical carcinoma; assay: Growth inhibition experiments (GI50), KB-3.1; assay type: cell-based; conditions: Table 1; KB-3.1
L-929 = assay: Growth inhibition experiments (GI50), L-929; assay type: cell-based; conditions: Table 1

For `COC1C(=O)OC(C)C(C)C=C(C)CC(C)C(=O)NC(C)C(=O)N(C)C(Cc2c[nH]c3ccccc23)C(=O)NC1c1ccc(O)c(Cl)c1` (centres unmarked) [Chondramide A3], which “growth inhibitory activity in cell lines (in words, compared to chondramides A~C / other derivatives)” value [1] is on record?
Its value is “comparable to chondramides A˜C”.

What about the GI50 [2] of the same compound?
Its GI50 is 0.0467 ± 0.0065 µM.

And the GI50 [3]?
The GI50 was 0.0286 ± 0.0039 µM.

And the GI50 [4]?
The GI50 was 0.0505 ± 0.0056 µM.

What about the GI50 [5] of the same compound?
Its GI50 is 0.038 ± 0.0028 µM.

What about the “GI50 values KB-V.1” value [6] of the same compound?
Its value is 0.0857 ± 0.0014 µM.

What about the “actin-polymerizing effect (G-actin polymerization in vitro)” value (from here on “actin-polymerizing effect”) [7] of the same compound?
Its value is “significantly reduced actin-polymerizing effect”.

And the “GI50 values KB-3.1” value [8]?
Its value is 0.0635 ± 0.0126 µM.

What about the GI50 (L-929) of the same compound?
Its GI50 is 0.0728 ± 0.0036 µM.

With `COC1C(=O)OC(C)C(C)C=C(C)CC(C)C(=O)NC(C)C(=O)N(C)C(Cc2c(Cl)[nH]c3ccccc23)C(=O)NC1c1ccc(OC2OC(C(=O)O)C(O)C(O)C2O)c(Cl)c1` (centres unmarked) [Chondramide A10] as the compound, how does the “growth inhibitory activity in cell lines (in words, compared to chondramides A~C / other derivatives)” value [1] read?
The value was “significantly reduced”.

What about the “GI50 values HUVEC” value [4] of the same compound?
Its value is “w.a”.

And the “GI50 values KB-V.1” value [6]?
Its value is “w.a”.

What about the “actin-polymerizing effect” value [7] of the same compound?
Its value is “slow increase in G-actin polymerization; also recorded: partly restore the ability to polymerize actin”.

And the “GI50 values KB-3.1” value [8]?
The value was “w.a”.

With `COC1C(=O)OC(C)C(C)C=C(C)CC(C)C(=O)NC(C)C(=O)N(C)C(Cc2c[nH]c3ccccc23)C(=O)NC1c1ccc(O)c(Br)c1` (centres unmarked) [Bromo-Chondramide A3] as the compound, how does the “GI50 values on human cancer cell lines” value ([1]; human cancer cell lines, cell-based studies) read?
The value was “low nanomolar range”.

And the GI50 [2]?
Its GI50 is 0.0377 ± 0.0028 µM.

What about the GI50 [3] of the same compound?
The GI50 was 0.0429 ± 0.0032 µM.

And the GI50 [4]?
Its GI50 is 0.0327 ± 0.0029 µM.

And the GI50 [5]?
Its GI50 is 0.0445 ± 0.0049 µM.

What about the “GI50 values KB-V.1” value [6] of the same compound?
Its value is 0.0112 ± 0.0004 µM.

And the “actin-polymerizing effect” value [7]?
The value was “quickly polymerizes G-actin”.

And the “GI50 values KB-3.1” value [8]?
The value was 0.0745 ± 0.0142 µM.

And the GI50 (L-929)?
Its GI50 is 0.0694 ± 0.0015 µM.

Which melting point does the source give for `C/C1=C\CCOC(=O)C[C@H](c2ccc(O)c(Cl)c2)NC(=O)[C@@H](Cc2c(Cl)[nH]c3ccccc23)N(C)C(=O)[C@H](C)NC(=O)CC1` here?
Its melting point is 135 to 139 °C.

With `C/C1=C\CCOC(=O)C[C@H](c2ccc(O)c(Br)c2)NC(=O)[C@@H](Cc2c[nH]c3ccccc23)N(C)C(=O)[C@H](C)NC(=O)CC1` as the compound, how does the melting point read?
The melting point was 129 to 132 °C.

With `COC1C(=O)OC(C)C(C)C=C(C)CC(C)C(=O)NC(C)C(=O)N(C)C(Cc2c(Cl)[nH]c3ccccc23)C(=O)NC1c1ccc(OP(=O)(O)O)cc1` (centres unmarked) [Chondramide A6] as the compound, how does the “growth inhibitory activity in cell lines (in words, compared to chondramides A~C / other derivatives)” value [1] read?
The value was “comparable to chondramides A˜C”.

What about the GI50 [2] of the same compound?
The GI50 was 0.0516 ± 0.0046 µM.

And the GI50 [3]?
Its GI50 is 0.0609 ± 0.0035 µM.

What about the GI50 [4] of the same compound?
Its GI50 is 0.0677 ± 0.0104 µM.

And the GI50 [5]?
The GI50 was 0.0259 ± 0.0015 µM.

And the “GI50 values KB-V.1” value [6]?
Its value is 0.0231 ± 0.0015 µM.

And the “actin-polymerizing effect” value [7]?
Its value is “significantly reduced actin-polymerizing effect”.

And the “GI50 values KB-3.1” value [8]?
The value was 0.0493 ± 0.0076 µM.

What about the GI50 (L-929) of the same compound?
The GI50 was 0.0446 ± 0.0055 µM.

With `COC1C(=O)OC(C)C(C)C=C(C)CC(C)C(=O)NC(C)C(=O)N(C)C(Cc2c(Cl)[nH]c3ccccc23)C(=O)NC1c1ccc(OP(=O)(O)O)c(Cl)c1` (centres unmarked) [Chondramide A8] as the compound, how does the “growth inhibitory activity in cell lines (in words, compared to chondramides A~C / other derivatives)” value [1] read?
Its value is “comparable to chondramides A˜C”.

And the GI50 [2]?
The GI50 was 0.0332 ± 0.0034 µM.

What about the GI50 [3] of the same compound?
The GI50 was 0.0493 ± 0.0076 µM.

And the GI50 [4]?
Its GI50 is 0.0241 ± 0.0079 µM.

And the GI50 [5]?
Its GI50 is 0.0076 ± 0.0047 µM.

And the “GI50 values KB-V.1” value [6]?
The value was 0.0581 ± 0.004 µM.

And the “actin-polymerizing effect” value [7]?
The value was “significantly reduced actin-polymerizing effect”.

What about the “GI50 values KB-3.1” value [8] of the same compound?
The value was 0.0134 ± 0.003 µM.

And the GI50 (L-929)?
The GI50 was 0.0562 ± 0.0125 µM.

Which “growth inhibitory activity in cell lines (in words, compared to chondramides A~C / other derivatives)” value [1] does the source give for `CCC1OC(=O)CC(c2ccc(O)cc2)NC(=O)C(Cc2c[nH]c3ccccc23)N(C)C(=O)C(C)NC(=O)C(C)CC(C)=CC1C` (centres unmarked) [Propionyl-Chondramide C1] here?
The value was “comparable to chondramides A˜C”.

What about the GI50 [2] of the same compound?
The GI50 was 0.0151 ± 0.0011 µM.

What about the GI50 [3] of the same compound?
Its GI50 is 0.0421 ± 0.0032 µM.

What about the GI50 [4] of the same compound?
Its GI50 is 0.0546 ± 0.0055 µM.

What about the GI50 [5] of the same compound?
Its GI50 is 0.0719 ± 0.0041 µM.

What about the “GI50 values KB-V.1” value [6] of the same compound?
The value was 0.0227 ± 0.0083 µM.

And the “actin-polymerizing effect” value [7]?
Its value is “significantly reduced actin-polymerizing effect”.

And the “GI50 values KB-3.1” value [8]?
The value was 0.0563 ± 0.0096 µM.

And the GI50 (L-929)?
Its GI50 is 0.03 ± 0.0077 µM.

With `C/C1=C\CCOC(=O)C[C@H](c2ccc(O)c(Cl)c2)NC(=O)[C@@H](Cc2c[nH]c3ccccc23)N(C)C(=O)[C@H](C)NC(=O)CC1` as the compound, how does the melting point read?
Its melting point is 122 to 126 °C.
